Laboratory results from ChEMBL document CHEMBL3244132, “Semisynthetic aminoglycoside antibacterials. 6. Synthesis of sisomicin, Antibiotic G-52, and novel 6'-substituted analogues of sisomicin from aminoglycoside 66-40C” (J Med Chem, 1978).
Activity calls are given as the source filed them.

Key:
Escherichia coli [1] = assay: Antimicrobial activity against Escherichia coli ATCC 10536 by tube dilution method; format: functional
Escherichia coli [2] = assay: Antimicrobial activity against Escherichia coli Baker 2 carrying APH(3')-I by tube dilution method; format: functional
Escherichia coli [3] = assay: Antimicrobial activity against Escherichia coli LA290R55 carrying ANT(2'') by tube dilution method; format: functional
Escherichia coli [4] = assay: Antimicrobial activity against Escherichia coli JR88 carrying AAC(3) by tube dilution method; format: functional
Escherichia coli [5] = assay: Antimicrobial activity against Escherichia coli HL97/W677 carrying AAC(6') by tube dilution method; format: functional
Pseudomonas aeruginosa [6] = assay: Antimicrobial activity against Pseudomonas aeruginosa St. M. 762 by tube dilution method; format: functional
Pseudomonas aeruginosa [7] = assay: Antimicrobial activity against Pseudomonas aeruginosa St. M. 1395 by tube dilution method; format: functional
Pseudomonas aeruginosa [8] = assay: Antimicrobial activity against Pseudomonas aeruginosa Stone 130 carrying AAC(3) by tube dilution method; format: functional
Pseudomonas aeruginosa [9] = assay: Antimicrobial activity against Pseudomonas aeruginosa GN 315 carrying AAC(6') by tube dilution method; format: functional
Klebsiella pneumoniae [10] = assay: Antimicrobial activity against Klebsiella pneumoniae Adler 17 carrying APH(3')-I by tube dilution method; format: functional
Klebsiella pneumoniae [11] = assay: Antimicrobial activity against Klebsiella pneumoniae Georgetown 3694 carrying APH(2'') by tube dilution method; format: functional
Providencia = assay: Antimicrobial activity against Providencia 164 carrying AAC(2')-I by tube dilution method; format: functional
Proteus mirabilis = assay: Antimicrobial activity against Proteus mirabilis Harding by tube dilution method; format: functional
Providencia rettgeri [12] = assay: Antimicrobial activity against Providencia rettgeri Membel by tube dilution method; format: functional
Providencia rettgeri [13] = assay: Antimicrobial activity against Providencia rettgeri Anderson by tube dilution method; format: functional
Serratia marcescens = assay: Antimicrobial activity against Serratia marcescens Dalton by tube dilution method; format: functional
Salmonella typhimurium = assay: Antimicrobial activity against Salmonella typhimurium Gr. B. by tube dilution method; format: functional, Salmonella enterica subsp. enterica serovar Typhimurium; settings: for MIC: Salmonella enterica
Bacillus subtilis = assay: Antimicrobial activity against Bacillus subtilis ATCC 6633 by tube dilution method; format: functional
Staphylococcus aureus [14] = assay: Antimicrobial activity against Staphylococcus aureus 209 P by tube dilution method; format: functional
Staphylococcus aureus [15] = assay: Antimicrobial activity against Staphylococcus aureus Wood by tube dilution method; format: functional
Staphylococcus aureus [16] = assay: Antimicrobial activity against Staphylococcus aureus Ziegler by tube dilution method; format: functional
Staphylococcus aureus [17] = assay: Antimicrobial activity against Staphylococcus aureus 59N by tube dilution method; format: functional
Streptococcus pyogenes [18] = assay: Antimicrobial activity against Streptococcus pyogenes C by tube dilution method; format: functional
Streptococcus pyogenes [19] = assay: Antimicrobial activity against Streptococcus pyogenes 27 by tube dilution method; format: functional
Streptococcus pyogenes [20] = assay: Antimicrobial activity against Streptococcus pyogenes Group A Cruz by tube dilution method; format: functional
Streptococcus pyogenes [21] = assay: Antimicrobial activity against Streptococcus pyogenes Alvarez by tube dilution method; format: functional
[22] = Acute toxicity in albino CF1 mouse; format: organism-based; settings: in vivo
Trichomonas vaginalis = assay: Antiprotozoal activity against Trichomonas vaginalis after 48 hrs; format: functional
Entamoeba histolytica = assay: Antiprotozoal activity against Entamoeba histolytica JH; format: functional
Histomonas meleagridis = assay: Antiprotozoal activity against Histomonas meleagridis; format: functional

CN[C@@H]1[C@@H](O)[C@@H](O[C@@H]2[C@@H](O)[C@H](O[C@H]3OC(CNC(C)(C)C)=CC[C@H]3N)[C@@H](N)C[C@H]2N)OC[C@]1(C)O
3 µg/mL: MIC (Escherichia coli [5]) | MIC (Proteus mirabilis) | MIC (Providencia rettgeri [12]) | MIC (Salmonella typhimurium) | MIC (Streptococcus pyogenes [20])
0.75 µg/mL: MIC (Escherichia coli [1]) | MIC (Staphylococcus aureus [17])
17.5 µg/mL: MIC (Escherichia coli [3]) | MIC (Pseudomonas aeruginosa [7]) | MIC (Providencia) | MIC (Streptococcus pyogenes [18])
90 mg/kg: LD50 [22]
0.03 µg/mL: MIC (Staphylococcus aureus [14]) | MIC (Staphylococcus aureus [15]) | MIC (Staphylococcus aureus [16])
7.5 µg/mL: MIC (Escherichia coli [2]) | MIC (Pseudomonas aeruginosa [6]) | MIC (Pseudomonas aeruginosa [9]) | MIC (Klebsiella pneumoniae [10]) | MIC (Serratia marcescens) | MIC (Streptococcus pyogenes [19])
< 0.01 µg/mL: MIC (Bacillus subtilis)
> 25 µg/mL: MIC (Escherichia coli [4]) | MIC (Pseudomonas aeruginosa [8]) | MIC (Klebsiella pneumoniae [11]) | MIC (Providencia rettgeri [13]) | MIC (Streptococcus pyogenes [21])
inactive: Activity (Trichomonas vaginalis) | Activity (Entamoeba histolytica) | Activity (Histomonas meleagridis)

CN[C@@H]1[C@@H](O)[C@@H](O[C@@H]2[C@@H](O)[C@H](O[C@H]3OC(CNN)=CC[C@H]3N)[C@@H](N)C[C@H]2N)OC[C@]1(C)O
inactive: Activity (Escherichia coli [1]) | Activity (Escherichia coli [2]) | Activity (Escherichia coli [3]) | Activity (Escherichia coli [4]) | Activity (Escherichia coli [5]) | Activity (Pseudomonas aeruginosa [6]) | Activity (Pseudomonas aeruginosa [7]) | Activity (Pseudomonas aeruginosa [8]) | Activity (Pseudomonas aeruginosa [9]) | Activity (Klebsiella pneumoniae [10]) | Activity (Klebsiella pneumoniae [11]) | Activity (Providencia) | Activity (Proteus mirabilis) | Activity (Providencia rettgeri [12]) | Activity (Providencia rettgeri [13]) | Activity (Serratia marcescens) | Activity (Salmonella typhimurium; Salmonella enterica subsp. enterica serovar Typhimurium) | Activity (Bacillus subtilis) | Activity (Staphylococcus aureus [14]) | Activity (Staphylococcus aureus [15]) | Activity (Staphylococcus aureus [16]) | Activity (Staphylococcus aureus [17]) | Activity (Streptococcus pyogenes [18]) | Activity (Streptococcus pyogenes [19]) | Activity (Streptococcus pyogenes [20]) | Activity (Streptococcus pyogenes [21]) | Activity (Trichomonas vaginalis) | Activity (Entamoeba histolytica) | Activity (Histomonas meleagridis)

CNCC1=CC[C@@H](N)[C@@H](O[C@H]2[C@H](O)[C@@H](O[C@H]3OC[C@](C)(O)[C@H](NC)[C@H]3O)[C@H](N)C[C@@H]2N)O1
50 mg/kg: LD50 [22]
0.75 µg/mL: MIC (Escherichia coli [2]) | MIC (Escherichia coli [5]) | MIC (Proteus mirabilis)
0.075 µg/mL: MIC (Klebsiella pneumoniae [10])
0.3 µg/mL: MIC (Escherichia coli [1]) | MIC (Pseudomonas aeruginosa [6]) | MIC (Pseudomonas aeruginosa [7]) | MIC (Pseudomonas aeruginosa [9]) | MIC (Serratia marcescens) | MIC (Streptococcus pyogenes [19]) | MIC (Streptococcus pyogenes [20])
< 0.01 µg/mL: MIC (Bacillus subtilis) | MIC (Staphylococcus aureus [14]) | MIC (Staphylococcus aureus [15])
17.5 µg/mL: MIC (Escherichia coli [3])
0.03 µg/mL: MIC (Staphylococcus aureus [16]) | MIC (Staphylococcus aureus [17])
> 25 µg/mL: MIC (Escherichia coli [4]) | MIC (Pseudomonas aeruginosa [8]) | MIC (Klebsiella pneumoniae [11]) | MIC (Providencia) | MIC (Providencia rettgeri [13]) | MIC (Streptococcus pyogenes [21])
3 µg/mL: MIC (Providencia rettgeri [12]) | MIC (Salmonella typhimurium) | MIC (Streptococcus pyogenes [18])
inactive: Activity (Trichomonas vaginalis) | Activity (Entamoeba histolytica) | Activity (Histomonas meleagridis)
